The record followed here is patent publication US10757937B2, “Sulfonamides that activate ABA receptors” (The Regents of the University of California, priority 2014, dated 2020).

Assay in all cases: receptor-mediated PP2C (HAB1) inhibition in vitro assay
What all share (assay type): biochemical

The target in one assay is T1, PYL6 (Arabidopsis thaliana, UniProt Q8S8E3).
T1 construct: 6X-His; made in house; host or cells: E. coli BL21[DE3]pLysS
T1 sequence (Q8S8E3 1-215): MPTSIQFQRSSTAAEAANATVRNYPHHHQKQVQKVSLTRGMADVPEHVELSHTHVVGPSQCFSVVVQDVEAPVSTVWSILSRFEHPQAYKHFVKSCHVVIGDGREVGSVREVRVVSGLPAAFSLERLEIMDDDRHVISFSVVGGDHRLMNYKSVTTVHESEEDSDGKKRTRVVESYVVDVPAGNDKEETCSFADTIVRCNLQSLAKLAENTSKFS
T1 sequence (Q9CAJ0 23-511 partner): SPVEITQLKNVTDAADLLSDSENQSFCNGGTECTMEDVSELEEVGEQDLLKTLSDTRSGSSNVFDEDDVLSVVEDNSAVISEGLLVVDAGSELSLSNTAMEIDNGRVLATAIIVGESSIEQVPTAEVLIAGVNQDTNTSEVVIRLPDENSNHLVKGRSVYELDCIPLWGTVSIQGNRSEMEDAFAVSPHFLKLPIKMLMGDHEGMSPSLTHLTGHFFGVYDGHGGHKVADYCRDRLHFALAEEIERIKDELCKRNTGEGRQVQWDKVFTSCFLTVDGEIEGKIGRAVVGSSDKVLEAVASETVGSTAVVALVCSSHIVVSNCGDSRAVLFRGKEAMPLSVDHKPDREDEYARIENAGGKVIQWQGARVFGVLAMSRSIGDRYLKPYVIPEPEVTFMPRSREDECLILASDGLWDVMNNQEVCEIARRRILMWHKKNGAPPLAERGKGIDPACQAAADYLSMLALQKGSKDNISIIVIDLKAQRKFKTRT
The settings on record: Table VII; read-out: PP2C Dose Curves PYL6 (IC50). The method, boiled down: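 His-tagged receptors (MBP fusion for PYL11) at 2:1 ratio to 50 nM GST-HAB1 in 100 mM Tris-OAc pH 7.9, 100 mM NaCl, 1 mM MnCl2; 4-methylumbelliferyl-phosphate fluorogenic substrate. Compounds at 50 uM (ABA 10 uM); IC50 from dose curves for selected compounds.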

In the next assay the target is T2, PYL9 (Arabidopsis thaliana, UniProt Q84MC7).
T2 construct: 6X-His; made in house; host or cells: E. coli BL21[DE3]pLysS
T2 sequence (Q84MC7 1-187): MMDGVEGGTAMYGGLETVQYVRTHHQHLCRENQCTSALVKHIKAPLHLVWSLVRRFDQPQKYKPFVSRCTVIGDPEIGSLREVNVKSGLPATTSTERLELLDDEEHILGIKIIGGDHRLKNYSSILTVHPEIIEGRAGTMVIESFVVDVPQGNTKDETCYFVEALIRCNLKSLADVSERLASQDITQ
T2 sequence (Q9CAJ0 23-511 partner): T1 sequence (Q9CAJ0 23-511 partner)
A digest of the protocol: (§1)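 Fluorogenic readout: 4-methylumbelliferyl-phosphate hydrolysis by 50 nM GST-HAB1 plus 2:1 His-receptor; Tris-OAc pH 7.9, NaCl, 1 mM MnCl2, β-ME. Compounds at 25 μM or 50 uM single dose; IC50 from dose curves for selected compounds.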

Another assay addresses T3, PYL5 (Arabidopsis thaliana, UniProt Q9FLB1).
T3 construct: 6X-His; made in house; host or cells: E. coli BL21[DE3]pLysS
T3 sequence (Q9FLB1 1-203): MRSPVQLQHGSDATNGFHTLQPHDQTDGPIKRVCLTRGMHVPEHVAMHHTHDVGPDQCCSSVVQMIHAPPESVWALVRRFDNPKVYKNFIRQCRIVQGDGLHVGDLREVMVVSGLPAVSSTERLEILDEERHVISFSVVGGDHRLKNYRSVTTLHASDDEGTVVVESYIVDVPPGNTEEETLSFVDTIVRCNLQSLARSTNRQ
T3 sequence (Q9CAJ0 23-511 partner): T1 sequence (Q9CAJ0 23-511 partner)
A digest of the protocol:
(§2)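 Compounds, tested at 25 μM or 50 uM with ABA at 10 uM, were incubated with recombinant receptor and 50 nM GST-HAB1 (2:1 ratio) in MnCl2-containing Tris-OAc buffer, pH 7.9. Phosphatase activity was followed by 4-methylumbelliferyl-phosphate fluorescence.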

Another assay concerns the target T4, PYL11 (Arabidopsis thaliana, UniProt Q9FJ50).
T4 construct: made in house; host or cells: E. coli BL21[DE3]pLysS
T4 sequence (Q9FJ50 1-161): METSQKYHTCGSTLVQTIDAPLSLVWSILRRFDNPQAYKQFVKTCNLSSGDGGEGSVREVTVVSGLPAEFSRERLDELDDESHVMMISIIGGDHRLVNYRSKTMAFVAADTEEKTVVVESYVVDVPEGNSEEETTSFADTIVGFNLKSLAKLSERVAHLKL
T4 sequence (Q9CAJ0 23-511 partner): T1 sequence (Q9CAJ0 23-511 partner)
The settings on record: Table VII; read-out: PP2C Dose Curves PYL11 (IC50). The method, boiled down:
as §2

A further assay has as its target T5, PYL8 (Arabidopsis thaliana, UniProt Q9FGM1).
T5 construct: 6X-His; made in house; host or cells: E. coli BL21[DE3]pLysS
T5 sequence (Q9FGM1 1-188): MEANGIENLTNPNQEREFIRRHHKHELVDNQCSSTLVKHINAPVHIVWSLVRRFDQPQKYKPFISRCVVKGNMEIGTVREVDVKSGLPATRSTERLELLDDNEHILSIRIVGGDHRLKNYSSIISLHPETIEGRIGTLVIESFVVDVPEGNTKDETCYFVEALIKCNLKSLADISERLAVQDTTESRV
T5 sequence (Q9CAJ0 23-511 partner): T1 sequence (Q9CAJ0 23-511 partner)
The method, boiled down: as §1

The target of a further assay is T6, PYL4 (Arabidopsis thaliana, UniProt O80920).
T6 construct: 6X-His; made in house; host or cells: E. coli BL21[DE3]pLysS
T6 sequence (O80920 1-207): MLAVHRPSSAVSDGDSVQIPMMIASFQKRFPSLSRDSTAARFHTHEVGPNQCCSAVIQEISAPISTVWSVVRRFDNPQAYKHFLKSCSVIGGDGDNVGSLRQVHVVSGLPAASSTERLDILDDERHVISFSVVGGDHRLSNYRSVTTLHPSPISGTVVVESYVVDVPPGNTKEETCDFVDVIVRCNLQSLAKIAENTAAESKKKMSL
T6 sequence (Q9CAJ0 23-511 partner): T1 sequence (Q9CAJ0 23-511 partner)
The settings on record: compound at 25 μM; control without agonist = 100%. A digest of the protocol:
as §2

Setting [1] is: compound at 25 μM, control without agonist = 100%.

As for `N#Cc1ccc(CS(=O)(=O)NC(=O)C2(c3cccc(F)c3)CC2)cc1` [Compound 46], the IC50 was determined as 15.3 µM on PYL6; 39.6 µM on PYL9 (Table VII, read-out: PP2C Dose Curves PYL9 (IC50)); 7.06 µM on PYL5 (Table VII, read-out: PP2C Dose Curves PYL5 (IC50)); 18.5 µM at PYL11; 111 µM at PYL8 (Table VII, read-out: PP2C Dose Curves PYL8 (IC50)). Besides, the remaining activity at 25 µM at PYL9 (setting [1]) came out at 55%; on PYL5 (setting [1]) it was 24%; on PYL8 (setting [1]), 73%; at PYL4, 95%.
